Measured values published in patent US20050153872A1, “Methods and compositions for the treatment of infection” (priority 2004, published 2005).

Tests used:
[1] = test system: Staphylococcus aureus MRSA 02-18; assay: microbe, parasite or virus in culture; type: cell-based; settings: Staphylococcus aureus MRSA 02-18
[2] = test system: ATCC 700671 PRSP (S. pneumoniae); assay: In vivo protection effects of Ph-SP; set-up: species or system mice; settings: for Death distribution in hours 24 h / Death distribution in hours 48 h / Death distribution in hours 72 h / Death distribution in hours 96 h / Death distribution in hours 120 h / Death distribution in hours 144 h / Death distribution in hours 168 h / Number of Death: 5 animals
Method: To assess the in vivo effect of Ph-SP, mice were injected with ATCC 700671 PRSP intraperitoneally, followed by intravenous injections of PH-SP or controls.
One hour after administration of the fatal dose of ATCC 700671 PRSP (10^5 CFU/ml), each mouse was injected through the tail vein with test agents at three dosages as described in Table 4.

[3] = test system: Staphylococcus epidermidis MSSE strain (21); assay: In vitro antibacterial activity (MIC), clinical isolates; type: cell-based; settings: 21 MSSE clinical isolates
Summary of the method: (§1)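 Clinical isolates collected in Sichuan and Beijing in 2002, identified with the API system, were exposed to test compound to determine MIC50, MIC90 and MIC range. S. aureus ATCC25923, 29213 and BAA-42 served as control strains.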

[4] = test system: Staphylococcus aureus MSSA strain (88); assay: as above; type: cell-based; settings: 88 MSSA clinical isolates
Summary of the method: as §1

[5] = test system: Staphylococcus aureus MRSA strain (80); assay: as above; type: cell-based; settings: 80 MRSA clinical isolates
Summary of the method: as §1

Enterococcus (20) = assay: as above; type: cell-based; settings: 20 Enterococcus clinical isolates
Summary of the method: as §1

ATCC 700802 VRE cells = assay: Ph-EF protection of ATCC 700802 infected mice; type: in vivo; settings: 5 animals
Method: To assess in vivo effects of Ph-EF, mice were injected with a fatal dosage of ATCC 700802 VRE cells intraperitoneally. […] Mice were inspected every 24 hours for 7-14 days. Dead mice would be counted as positive results.

[6] = test system: Staphylococcus aureus ATCC 29213; assay: MIC against challenge strain (Table 3); type: cell-based
[7] = test system: vancomycin-sensitive Enterococcus ATCC29212; settings: 3 ug/ml; ATCC 29212 cells
[8] = test system: Staphylococcus aureus MRSA 02-18; assay: In vivo protection of infected mice; set-up: species or system Kungming mice; settings: mice, i.p. infection 1.7 × 10^5 cfu/ml
Method: (§2) The following experiments were performed by Pharmacology Lab, National Sichuan antibiotic industril institute, Chengdu, Sichuan.
(§3) The agents described above were diluted with sterilized water to final concentrations of 10 mg/L, 5 mg/Land 2.5 mg/L.
(§4) Staphylococcus aureus ATCC BAA-42(MRSA) and enterococcus faecalis ATCC 700802 were used as control strains.
(§5) 170 mice (Kungming mice: 18˜22 g, 85 males and 85 females) were randomly divided into four groups and injected with a fatal dosage of staphylococci, enterococcus and E. coli intraperitoneally. […] Mice were inspected every 24 hours for 7-14 days. Dead mice were counted as positive results. The results are depicted in Table 3 and FIGS. 4 and 5A-B.

[9] = test system: Enterococcus faecalis ATCC 700802; assay: In vivo protection of infected mice; set-up: species or system Kungming mice; settings: mice, i.p. infection 8.0 × 10^6 cfu/ml
Method: as §2, §3, §4, §5

[10] = test system: Staphylococcus aureus MRSA BAA-42; assay: In vivo protection of infected mice; set-up: species or system Kungming mice; settings: mice, i.p. infection 5.5 × 10^5 cfu/ml
Method: as §2, §3, §4, §5

Escherichia coli 02-1-65 [11] = assay: MIC against challenge strain (Table 3); type: cell-based
[12] = test system: Enterococcus faecalis ATCC 700802; assay: microbe, parasite or virus in culture; type: cell-based; settings: Enterococcus faecalis, ATCC700802
[13] = test system: Staphylococcus aureus MRSA BAA-42; assay: microbe, parasite or virus in culture; type: cell-based; settings: Staphylococcus aureus MRSA BAA-42
[14] = test system: S. pneumoniae ATCC 700671 (Penicillin-resistant SP); settings: 5 ug/ml
[15] = test system: Staphylococcus aureus ATCC 29213; assay: In vivo protection of infected mice; set-up: species or system Kungming mice; settings: i.p. infection 3.6 × 10^5 cfu/ml
Method: as §2
(§6) The agents described above were diluted with sterilized water to final concentrations of 10 mg/L, 5 mg/Land 2.5 mg/L. […]
as §5

Escherichia coli 02-1-65 [16] = assay: In vivo protection of infected mice; set-up: species or system Kungming mice; settings: i.p. infection 3.3 × 10^5 cfu/ml
Method: as §2, §6, §5

[17] = test system: S. pneumoniae BQIOC 31201 (non-resistant)
MRSA strain ATCC BAA-42 = assay: Electron micrographs of bactericidal effects; type: cell-based, S. aureus; settings: Ph-SA 50 μg/ml 0.5 hrs; wild type colicin Ia 50 μg/ml 2 hrs; AgrDI 10 μg/ml 2 hrs
From the text: Electron Micrographs of Bactericidal Effects of Ph-SA1 Against ATCC BAA-42 MRSA Strain Cells (1% Phosphotungstic Acid. 25,000×)

[18] = 1st Time, i.v. treatment after one hour
[19] = 2nd Time (value in parentheses), i.v. treatment

sodium penicillin
MIC [1]: >16 µg/mL
Death distribution in hours 24 h ([2]; 5 mg/kg tail vein): 3
Death distribution in hours 48 h ([2]; 5 mg/kg tail vein): 0
Death distribution in hours 72 h ([2]; 5 mg/kg tail vein): 0
Death distribution in hours 96 h ([2]; 5 mg/kg tail vein): 0
Death distribution in hours 120 h ([2]; 5 mg/kg tail vein): 0
Death distribution in hours 144 h ([2]; 5 mg/kg tail vein): 0
Death distribution in hours 168 h ([2]; 5 mg/kg tail vein): 0
Number of Death ([2]; 5 mg/kg tail vein): 3
Death distribution in hours 24 h ([2]; 10 mg/kg tail vein): 3
Death distribution in hours 48 h ([2]; 10 mg/kg tail vein): 0
Death distribution in hours 72 h ([2]; 10 mg/kg tail vein): 0
Death distribution in hours 96 h ([2]; 10 mg/kg tail vein): 0
Death distribution in hours 120 h ([2]; 10 mg/kg tail vein): 0
Death distribution in hours 144 h ([2]; 10 mg/kg tail vein): 0
Death distribution in hours 168 h ([2]; 10 mg/kg tail vein): 0
Number of Death ([2]; 10 mg/kg tail vein): 3
MIC50 [3]: 4 µg/mL
MIC90 [3]: 32 µg/mL
MIC Scope [3]: 0.125˜128 mg/l
MIC50 [4]: 8 µg/mL
MIC90 [4]: 64 µg/mL
MIC Scope [5]: 1˜128 mg/l
MIC50 (Enterococcus (20)): 32 µg/mL
MIC90 (Enterococcus (20)): 64 µg/mL
Death distribution in hours 24 h (ATCC 700802 VRE cells; 5 mg/kg intravenously): 0
Death distribution in hours 48 h (ATCC 700802 VRE cells; 5 mg/kg intravenously): 1
Death distribution in hours 72 h (ATCC 700802 VRE cells; 5 mg/kg intravenously): 1
Death distribution in hours 96 h (ATCC 700802 VRE cells; 5 mg/kg intravenously): 1
Death distribution in hours 120 h (ATCC 700802 VRE cells; 5 mg/kg intravenously): 0
Death distribution in hours 144 h (ATCC 700802 VRE cells; 5 mg/kg intravenously): 0
Death distribution in hours 168 h (ATCC 700802 VRE cells; 5 mg/kg intravenously): 0
Number of Death (ATCC 700802 VRE cells; 5 mg/kg intravenously): 3
Death distribution in hours 24 h (ATCC 700802 VRE cells; 10 mg/kg intravenously): 0
Death distribution in hours 48 h (ATCC 700802 VRE cells; 10 mg/kg intravenously): 0
Death distribution in hours 72 h (ATCC 700802 VRE cells; 10 mg/kg intravenously): 0
Death distribution in hours 96 h (ATCC 700802 VRE cells; 10 mg/kg intravenously): 0
Death distribution in hours 120 h (ATCC 700802 VRE cells; 10 mg/kg intravenously): 0
Death distribution in hours 144 h (ATCC 700802 VRE cells; 10 mg/kg intravenously): 0
Death distribution in hours 168 h (ATCC 700802 VRE cells; 10 mg/kg intravenously): 0
Number of Death (ATCC 700802 VRE cells; 10 mg/kg intravenously): 0
MIC [6]: 16 µg/mL
inhibition of cell growth [7]: inhibited cell growth
ED50 [8, 18]: 7.28 mg/kg
ED50 [8, 19]: (11.33) mg/kg
ED50 [9, 18]: 3.16 mg/kg
ED50 [9, 19]: (3.08) mg/kg
ED50 [10, 18]: >10 mg/kg
ED50 [10, 19]: (14.71) mg/kg
MIC (Escherichia coli 02-1-65 [11]): >128 µg/mL
MIC [12]: 2 µg/mL
MIC [13]: 8 µg/mL
inhibition of cell growth [14]: did not have a growth inhibitory effect
ED50 [15, 18]: 10.75 mg/kg
ED50 [15, 19]: (9.84) mg/kg
ED50 (Escherichia coli 02-1-65 [16]; [18]): >30.77 mg/kg
ED50 (Escherichia coli 02-1-65 [16]; [19]): (>30.77) mg/kg

B1: Ph-SP: Colicin Ia linked to ComC pheromone of S. pneumoniae (protein)
chain: SDPVARGITNPGAESLGYDSDGHEIMAVASPIYVASNPPRVASPVFHGTPPAWSSFGNKTIWGGNEWVASPDSPTRSDIEKRDKEITAYKNTLSAQQKENENKRTEAGKRLSAAIAAREKDENTLKTLRAGNADAADITRQEFRLLQAELREYGFRTEIAGYDALRLHTESRMLFADADSLRISPREARSLIEQAEKRQKDAQNADKKAADMLAEYERRKGILDTRLSELEKNGGAALAVLDAQQARLLGQQTRNDRAISEARNKLSSVTESLNTARNALTRAEQQLTQQKNTPDGKTIVSPEKFPGRSSTNHSIVVSGDPRFAGTIKITTSAVIDNRANLNYLLSHSGLDYKRNILNDRNPVVTEDVEGDKKIYNAEVALAEWDKLRQRLLDARNKITSAESAVASNSARNNLSARTNEQKHANDALNALLKEKENIRNQLSGINQKIAEEKRKQDELKATKDAINFTTEFLKSVSEKYGAKAEQLAREMAGQAKGKKIRNVEEALKTYEKYRADINKKINAKDRAAIAAALESVKLSDISSNLNRFSRGLGYAGKFTSLADWITEFGKAVARGTENWRPLFVKTETIIAGNAATALVALALVFSILTGSALGIIGYGLLMAVTGALIDESLVEKANKFWGIEMRLSKFFRDFILQRKK
modifications: colicin Ia attached to streptococcus pneumoniae polypeptide pheromone
Death distribution in hours 24 h ([2]; 5 mg/kg tail vein): 0
Death distribution in hours 48 h ([2]; 5 mg/kg tail vein): 1
Death distribution in hours 72 h ([2]; 5 mg/kg tail vein): 0
Death distribution in hours 96 h ([2]; 5 mg/kg tail vein): 0
Death distribution in hours 120 h ([2]; 5 mg/kg tail vein): 0
Death distribution in hours 144 h ([2]; 5 mg/kg tail vein): 0
Death distribution in hours 168 h ([2]; 5 mg/kg tail vein): 0
Number of Death ([2]; 5 mg/kg tail vein): 1
Death distribution in hours 24 h ([2]; 10 mg/kg tail vein): 0
Death distribution in hours 48 h ([2]; 10 mg/kg tail vein): 0
Death distribution in hours 72 h ([2]; 10 mg/kg tail vein): 0
Death distribution in hours 96 h ([2]; 10 mg/kg tail vein): 0
Death distribution in hours 120 h ([2]; 10 mg/kg tail vein): 0
Death distribution in hours 144 h ([2]; 10 mg/kg tail vein): 0
Death distribution in hours 168 h ([2]; 10 mg/kg tail vein): 0
Number of Death ([2]; 10 mg/kg tail vein): 0
protection against infection in mice ([2]; ATCC 700671 PRSP i.p., agent i.v.): prevents streptococcus pneumoniae infection in mice
bactericidal effect relative to penicillin on a molar basis ([17]; Ph-SP 70,000 daltons vs penicillin 350 daltons): two hundred fold greater
inhibition of cell growth [14]: more than 90%

B2: wild type colicin Ia: wild type colicin Ia, channel forming polypeptide without targeting agent (protein)
chain: MSDPVARGITNPGAESLGYDSDGHEIMAVASPIYVASNPPRVASPVFHGTPPAWSSFGNKTIWGGNEWVASPDSPTRSDIEKRDKEITAYKNTLSAQQKENENKRTEAGKRLSAAIAAREKDENTLKTLRAGNADAADITRQEFRLLQAELREYGFRTEIAGYDALRLHTESRMLFADADSLRISPREARSLIEQAEKRQKDAQNADKKAADMLAEYERRKGILDTRLSELEKNGGAALAVLDAQQARLLGQQTRNDRAISEARNKLSSVTESLNTARNALTRAEQQLTQQKNTPDGKTIVSPEKFPGRSSTNHSIVVSGDPRFAGTIKITTSAVIDNRANLNYLLSHSGLDYKRNILNDRNPVVTEDVEGDKKIYNAEVALAEWDKLRQRLLDARNKITSAESAVASNSARNNLSARTNEQKHANDALNALLKEKENIRNQLSGINQKIAEEKRKQDELKATKDAINFTTEFLKSVSEKYGAKAEQLAREMAGQAKGKKIRNVEEALKTYEKYRADINKKINAKDRAAIAAALESVKLSDISSNLNRFSRGLGYAGKFTSLADWITEFGKAVARGTENWRPLFVKTETIIAGNAATALVALALVFSILTGSALGIIGYGLLMAVTGALIDESLVEKANKFWGI
modifications: E. coli
notes: wild type colicin Ia, channel forming polypeptide without targeting agent
inhibition of cell growth ([17]; 5 ug/ml, S. pneumoniae BQIOC 31201): did not inhibit growth
bactericidal effect / effect on cell growth (electron micrographs) (MRSA strain ATCC BAA-42): no effect on cell growth
inhibition of cell growth [7]: failed to inhibit growth
